From patent publication US20040254162A1, “Oxazolidinone derivatives as antimicrobials” (priority 2001, published 2004)
Several values for one entry are separate records, joined by “and”; a condition that tells them apart may be missing. Equal values may be shown once.

Experiments:
[1] = Changes in MIC under different conditions: agar MIC; type: cell-based; conditions: strain not given
[2] = Changes in MIC under different conditions: broth MIC; type: cell-based; conditions: strain not given
[3] = system: anaerobic bacteria; assay: Agar dilution method for anaerobic bacteria, summary; type: cell-based; conditions: anaerobes
[4] = system: Clostridium camis; assay: Agar dilution MIC, anaerobes; type: cell-based; conditions: single isolates, anaerobic agar dilution
[5] = system: Clostridium perfringens; assay: microbe, parasite or virus in culture; type: cell-based; conditions: single isolates, anaerobic agar dilution
[6] = system: Clostridium difficile; assay: Agar dilution MIC, anaerobes; type: cell-based; conditions: single isolates, anaerobic agar dilution
[7] = system: Bacteroides fragilis; assay: Agar dilution MIC, anaerobes; type: cell-based; conditions: single isolates, anaerobic agar dilution
[8] = system: Prevotella bivia; assay: Agar dilution MIC, anaerobes; type: cell-based; conditions: single isolate, anaerobic agar dilution
[9] = system: Prevotella intermedia; assay: Agar dilution MIC, anaerobes; type: cell-based; conditions: single isolates, anaerobic agar dilution
[10] = system: Porphyromonas asaccharolytica; assay: Agar dilution MIC, anaerobes; type: cell-based; conditions: single isolate, anaerobic agar dilution
[11] = system: Fusobacterium montiferum; assay: Agar dilution MIC, anaerobes; type: cell-based; conditions: single isolates, anaerobic agar dilution
[12] = system: Porphyromonas gingivalis; assay: Agar dilution MIC, anaerobes; type: cell-based; conditions: single isolate, anaerobic agar dilution
[13] = system: P. acnes; assay: Agar dilution MIC, anaerobes; type: cell-based; conditions: single isolates, anaerobic agar dilution
[14] = system: Peptostreptococcus asaccharolyticus; assay: Agar dilution MIC, anaerobes; type: cell-based; conditions: single isolates, anaerobic agar dilution
[15] = system: Peptostreptococcus tetradius; assay: Agar dilution MIC, anaerobes; type: cell-based; conditions: single isolates, anaerobic agar dilution
[16] = system: Eubacterium leutum; assay: Agar dilution MIC, anaerobes; type: cell-based; conditions: single isolates, anaerobic agar dilution
[17] = system: Fusobacterium necrogenes; assay: Agar dilution MIC, anaerobes; type: cell-based; conditions: single isolate, anaerobic agar dilution
[18] = system: MRSA 1029/99 and MRSE 879/247; assay: Inhibition of biofilm (slime) production; type: cell-based; conditions: trypticase soy broth with 2% glucose, overnight 37° C., safranin OD 544 nm
Description: To study the effect of Compound No. 16 on the inhibition of biofilm production, the following study was carried out. […] Bacterial suspensions (in triplicate) were exposed to doubling dilution of antibiotics and incubated overnight at 37° C. with constant shaking (100 rpm). Next day, after aspirating the medium, biofilm was stained with safranin (0.1%) for 1 hour at room temperature, washed with distilled water, tapped dried and stain extracted into 200 μl of 0.2M NaoH and OD measured at 544 nm. Relative inhibition was determined by using the formula: […]

[19] = system: MRSE 879; assay: Broth MIC, MRSE 879; type: cell-based; conditions: MRSE 879
[20] = system: Mycobacterium avium intracellulare; assay: Agar dilution method, mycobacteria; type: cell-based
[21] = system: Mycobacterium tuberculosis
[22] = system: S. aureus ATCC 25923; assay: MIC, agar incorporation method; conditions: agar incorporation
[23] = system: MRSA 15187; assay: MIC, agar incorporation method; conditions: agar incorporation
[24] = system: MRSA 33; assay: MIC, agar incorporation method; conditions: agar incorporation
[25] = system: Ent. faecalis ATCC 29212; assay: MIC, agar incorporation method; conditions: agar incorporation
[26] = system: VRE 6A (Ent. faecium 6A); assay: MIC, agar incorporation method; conditions: agar incorporation
[27] = system: Strep. pyog. ATCC 19615; assay: MIC, agar incorporation method; conditions: agar incorporation
[28] = system: Strep. pne. ATCC 6303; assay: MIC, agar incorporation method; conditions: agar incorporation
[29] = system: S. pneum AB 34; assay: MIC, agar incorporation method; conditions: agar incorporation
[30] = system: MRSE 879 adherent bacteria; assay: Sintered glass adherent bacteria model; conditions: MRSE 879, sintered glass adherent bacteria model

In the case of `CC(=O)NC[C@H]1CN(c2ccc(N3CCN(Cc4ccc([N+](=O)[O-])o4)CC3)c(F)c2)C(=O)O1.Cl` [Compound No. 16], the “Agar MIC” value [1] is reported as 2 µg/mL, the “Broth MIC +50% Sheep serum” value ([2]; +50% sheep serum) is reported as 2 µg/mL and the “Broth MIC Normal MH broth” value ([2]; normal MH broth) is reported as 2 µg/mL. The “Geometric Mean” value [3] was 0.037 µg/mL, the “MIC Range” value [3] was 0.004 to 1 µg/mL and the MIC50 ([3]; Wilkins Chalgren agar, 48 hour) was 0.032 µg/mL. The MIC90 ([3]; Wilkins Chalgren agar, 48 hour) was 0.25 µg/mL, the “MIC Clostridium camis” value [4] was 0.03 µg/mL and 0.016 µg/mL and the “MIC Clostridium perfringens” value [5] was 0.03 µg/mL. For the same molecule, the “MIC Clostridium difficile” value [6] was 0.03 µg/mL, the “MIC Bacteroides fragilis” value [7] was 0.03 µg/mL and 0.06 µg/mL and the “MIC Prevotella bivia” value [8] was 0.125 µg/mL. For the same molecule, the “MIC Prevotella intermedia” value [9] was 0.016 µg/mL, the “MIC Porphyromonas asaccharolytica” value [10] was “<=.008 μg/ml” and the “MIC Fusobacterium montiferum” value [11] was 0.03 µg/mL. The “MIC Porphyromonas gingivalis” value [12] was “<=.008 μg/ml”, the “MIC P. acnes” value [13] was 1 µg/mL and the “MIC Peptostreptococcus asaccharolyticus” value [14] was “<=.008 μg/ml”. The “MIC Peptostreptococcus tetradius” value [15] was “<=.008 μg/ml”, the “MIC Eubacterium leutum” value [16] was “<=.008 μg/ml” and the “MIC Fusobacterium necrogenes” value [17] was “<=.008 μg/ml”. For the same molecule, the “Formation of biofilm inhibition” value [18] was “occurs at lower a concentration”, the “broth MIC” value [19] was 0.5 µg/mL and the MIC50 ([20]; Middlebrook 7H10 agar, 21 days) was 8 µg/mL. It also gave an MIC90 ([20]; Middlebrook 7H10 agar, 21 days) of 32 µg/mL, a G.M. ([20]; geometric mean MIC) of 8.52 µg/mL and an MIC50 ([21]; Middlebrook 7H10 agar, 21 days) of 4 µg/mL. For the same molecule, the MIC90 ([21]; Middlebrook 7H10 agar, 21 days) was 64 µg/mL, the G.M. ([21]; geometric mean MIC) was 5.44 µg/mL and the “MIC S. aureus 25923” value [22] was 2 µg/mL. For the same molecule, the “MIC MRSA 15187” value [23] was 4 µg/mL, the “MIC MRSA 33” value [24] was 4 µg/mL and the “MIC E. faecalis 29212” value [25] was 2 µg/mL. The “MIC VRE 6A” value [26] was 4 µg/mL, the “MIC S. pyogenes 19615” value [27] was 0.5 µg/mL and the “MIC S. pneum 6303” value [28] was 1 µg/mL. For the same molecule, the “MIC S. pneum AB 34” value [29] was 1 µg/mL and the “concentration which would kill adherent bacteria” value [30] was 2 µg/mL.
